Reference: patent publication US20230365592A1 (Agios Pharmaceuticals, Inc., priority 2022, published 2023)

Target: T1, human PAH with the R408W mutation (Homo sapiens, UniProt P00439, R408W)
T1 construct: expressed in transfected cells
T1 sequence (P00439 1-452 R408W): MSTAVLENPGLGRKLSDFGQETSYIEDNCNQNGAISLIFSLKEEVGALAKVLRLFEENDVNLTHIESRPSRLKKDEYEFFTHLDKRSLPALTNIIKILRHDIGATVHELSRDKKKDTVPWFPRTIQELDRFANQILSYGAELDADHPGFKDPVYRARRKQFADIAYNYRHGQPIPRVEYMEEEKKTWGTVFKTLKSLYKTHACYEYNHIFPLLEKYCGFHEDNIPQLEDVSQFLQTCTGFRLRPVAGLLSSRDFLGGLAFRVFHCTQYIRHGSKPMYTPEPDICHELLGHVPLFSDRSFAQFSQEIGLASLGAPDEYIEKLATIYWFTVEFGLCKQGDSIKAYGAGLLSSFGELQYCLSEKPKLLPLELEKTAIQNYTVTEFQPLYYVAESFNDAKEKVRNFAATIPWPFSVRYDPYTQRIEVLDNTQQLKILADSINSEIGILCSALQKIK
Assay: Cell Based Phenylalanine Flux Assay;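 note: after compound treatment, cells received sepiapterin plus isotope-labelled Phenylalanine for 4 hours, then labelled Tyrosine in the medium was quantified, 10-point 2-fold dilution series run in duplicate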
Conditions: A375 cells expressing human R408W PAH; 24 hrs compound incubation; 13C-Tyrosine by LC-MS; average where tested multiple times; read-out: AC50

Row | Compound | AC50
1 | Cc1ccn2nc([C@H]3c4nc[nH]c4CCN3C(=O)c3ocnc3C(F)F)cc2c1 [Example 1005, (R)-(4-(difluoromethyl)oxazol-5-yl)(4-(5-methylpyrazolo[1,5-a]pyridin-2-yl)-6,7-dihydro-1H-imidazo[4,5-c]pyridin-5(4H)-yl)methanone] | < 500 nM
2 | O=C(c1oc(-c2ccccn2)nc1C(F)F)N1CCc2[nH]cnc2[C@@H]1c1cc2c(F)cccn2n1 [Example 1007, (R)-(4-(difluoromethyl)-2-(pyridin-2-yl)oxazol-5-yl)(4-(4-fluoropyrazolo[1,5-a]pyridin-2-yl)-6,7-dihydro-1H-imidazo[4,5-c]pyridin-5(4H)-yl)methanone] | 500 to 1000 nM
3 | Cc1cccn2nc([C@H]3c4nc[nH]c4CCN3C(=O)c3oc(-c4cnn(C)c4)nc3C(F)F)cc12 [Example 1009, (R)-(4-(difluoromethyl)-2-(1-methyl-1H-pyrazol-4-yl)oxazol-5-yl)(4-(4-methylpyrazolo[1,5-a]pyridin-2-yl)-6,7-dihydro-1H-imidazo[4,5-c]pyridin-5(4H)-yl)methanone] | 500 to 1000 nM
4 | Cc1nnc(C(=O)N2CCc3[nH]cnc3[C@H]2c2cc3c(C)cccn3n2)o1 [Example 1010, (S)-(5-methyl-1,3,4-oxadiazol-2-yl)(4-(4-methylpyrazolo[1,5-a]pyridin-2-yl)-6,7-dihydro-1H-imidazo[4,5-c)pyridin-5(4H)-yl)methanone] | 500 to 1000 nM
5 | Cc1cccn2nc([C@@H]3c4nc[nH]c4CCN3C(=O)c3nnc(N4CCC(F)CC4)o3)cc12 [Example 1012, (S)-(5-(4-fluoropiperidin-1-yl)-1,3,4-oxadiazol-2-yl)(4-(4-methylpyrazolo[1,5-a]pyridin-2-yl)-6,7-dihydro-1H-imidazo[4,5-c]pyridin-5(4H)-yl)methanone] | 500 to 1000 nM
6 | Cc1cccn2nc([C@H]3c4nc[nH]c4CCN3C(=O)c3nnc(N4CCC(F)CC4)o3)cc12 [Example 1013, (R)-(5-(4-fluoropiperidin-1-yl)-1,3,4-oxadiazol-2-yl)(4-(4-methylpyrazolo[1,5-a]pyridin-2-yl)-6,7-dihydro-1H-imidazo[4,5-c]pyridin-5(4H)-yl)methanone] | > 5000 nM
7 | O=C(c1nnc(N2CCC(F)CC2)o1)N1CCc2[nH]cnc2[C@H]1c1cc2c(F)cccn2n1 [Example 1014, (S)-(5-(4-fluoropiperidin-1-yl)-1,3,4-oxadiazol-2-yl)(4-(4-fluoropyrazolo[1,5-a]pyridin-2-yl)-6,7-dihydro-1H-imidazo[4,5-c]pyridin-5(4H)-yl)methanone] | < 500 nM
8 | O=C(c1nnc(N2CCC(F)CC2)o1)N1CCc2[nH]cnc2[C@@H]1c1cc2c(F)cccn2n1 [Example 1015, (R)-(5-(4-fluoropiperidin-1-yl)-1,3,4-oxadiazol-2-yl)(4-(4-fluoropyrazolo[1,5-a]pyridin-2-yl)-6,7-dihydro-1H-imidazo[4,5-c]pyridin-5(4H)-yl)methanone] | > 5000 nM
9 | Cc1cccn2nc([C@@H]3c4nc[nH]c4CCN3C(=O)c3nnc(-c4ccnn4C)o3)cc12 [Example 1016, (S)-(5-(1-methyl-1H-pyrazol-5-yl)-1,3,4-oxadiazol-2-yl)(4-(4-methylpyrazolo[1,5-a]pyridin-2-yl)-6,7-dihydro-1H-imidazo[4,5-c]pyridin-5(4H)-yl)methanone] | < 500 nM
10 | Cc1cccn2nc([C@H]3c4nc[nH]c4CCN3C(=O)c3nnc(-c4ccnn4C)o3)cc12 [Example 1017, (R)-(5-(1-methyl-1H-pyrazol-5-yl)-1,3,4-oxadiazol-2-yl)(4-(4-methylpyrazolo[1,5-a]pyridin-2-yl)-6,7-dihydro-1H-imidazo[4,5-c]pyridin-5(4H)-yl)methanone] | > 5000 nM
11 | Cn1nccc1-c1nnc(C(=O)N2CCc3[nH]cnc3[C@H]2c2cc3c(F)cccn3n2)o1 [Example 1018, (S)-(4-(4-fluoropyrazolo[1,5-a]pyridin-2-yl)-6,7-dihydro-1H-imidazo[4,5-c]pyridin-5(4H)-yl)(5-(1methyl-1H-pyrazol-5-yl)-1,3,4-oxadiazol-2-yl)methanone] | < 500 nM
